Measurements reported in PMC9013686, “Inter-individual variation in chlorpyrifos toxicokinetics characterized by physiologically based kinetic (PBK) and Monte Carlo simulation comparing human liver microsome and Supersome™ cytochromes P450 (CYP)-specific kinetic data as model input” (Archives of Toxicology, 2022).

Target: T1, CYP1A2 in pooled HLMs (Homo sapiens, UniProt P05177)
T1 construct: the native CYPs present in HLM; tissue Corning (Amsterdam, The Netherlands); host or cells: pooled human liver microsomes, 150 donors, mixed gender
T1 sequence (P05177 1-516): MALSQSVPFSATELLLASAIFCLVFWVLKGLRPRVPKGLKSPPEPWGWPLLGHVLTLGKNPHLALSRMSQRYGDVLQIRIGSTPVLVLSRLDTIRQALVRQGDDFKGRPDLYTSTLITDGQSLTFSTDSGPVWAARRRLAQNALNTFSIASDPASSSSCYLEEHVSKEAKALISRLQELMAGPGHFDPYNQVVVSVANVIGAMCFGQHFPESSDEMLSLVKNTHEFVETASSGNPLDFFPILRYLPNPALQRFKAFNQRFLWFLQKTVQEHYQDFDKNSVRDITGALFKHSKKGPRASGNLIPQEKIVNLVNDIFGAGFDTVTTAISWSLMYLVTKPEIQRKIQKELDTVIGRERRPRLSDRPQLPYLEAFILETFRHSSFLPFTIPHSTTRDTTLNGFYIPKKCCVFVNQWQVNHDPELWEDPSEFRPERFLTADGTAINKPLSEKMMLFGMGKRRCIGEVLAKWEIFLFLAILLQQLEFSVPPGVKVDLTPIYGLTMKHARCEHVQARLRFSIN
Assay: Pooled HLM incubation with CYP1A2 probe substrate (ISEF determination)
Format: in vitro ADME
Settings: acetaminophen formation
Method: To normalize for differences in intrinsic CYP activity between Supersome™ and pooled HLMs and enable scaling of the activities to the in vivo situation, CYP-specific ISEF values need to be established. […] The incubation method was similar as used for the CPF kinetic incubation assay described above, except that certain incubation conditions were replaced by the conditions listed in Table 1. The samples obtained were analyzed by UPLC-PDA for acetaminophen, 4-hydroxymephenytoin, and 6β-hydroxytestosterone formation catalyzed by 1A2, 2C19 and 3A4, or LC–MS/MS for (±)-hydroxybupropion formation catalyzed by 2B6.
As mentioned before, the in vitro apparent kinetic parameters (Vmax and Km) for pathway 1 and pathway 2 in the HLM-based approach, and pathway 3 in both approaches were all obtained directly from reported studies using pooled HLMs (Buratti et al. [2003]; Sams et al. [2004]; Zhao et al. [2019]). Therefore, no extra calculations were required to define these parameters. […] It should be noted that the kinetic parameters for pathway 4 used in the two approaches were calculated as mean of the kinetic parameters (Vmax and Km) obtained using 25 individual HP samples (with correction for total protein concentration of each plasma sample).

CCOc1ccc(NC(C)=O)cc1 [Phenacetin, phenacetin]
Vmax (pooled HLMs): 0.15 nmol/min/mg microsomal protein
